According to patent US9260326B2, “Selective oxoanion separation using a tripodal ligand” (UT-BATTELLE, LLC, priority 2012, dated 2016):

Assays:
[1] = Pairwise competitive crystallization with L1, Na-based system
Experimental: (§1) The experiments described below were generally conducted as described above and as described in Rajbanshi et al. 2012.
To assess the size recognition of the crystalline capsule in the Na-based system, similar pairwise competitive crystallization experiments were performed with L1 (two equivalents) and Na2SO4/Na2SeO4 mixtures (one equivalent each) in H2O/MeOH. […] The SO4^2−/SeO4^2− molar ratio found in the crystalline solid resulting from the competitive crystallization was 31.3, indicating strong size recognition for SO4^2−. […] The increased SO4^2−/SeO4^2− selectivity in the Na-based system may be attributed to the smaller size of the Na capsule (d(N . . . N)=9.51 Å) compared to the Mg capsule (d(N . . . N)=9.65 Å), which favored the smaller sulphate anion.
In comparison with the good SO4^2−/SeO4^2− selectivity observed in the Na-based crystallizations, the competitive crystallization experiment involving a Na2SO4/Na2CrO4 mixture under similar conditions yielded crystals with a SO4^2−/CrO4^2− ratio of only 2.0. […] As a result, binding of chromate is inherently favored due to its stronger hydrogen bond acceptor ability compared to sulphate, a factor that apparently offsets much of the size discrimination effect.

[2] = Sulfate separation and L1 recycling, Mg-based system, Simulant 1
Experimental: For comparison purposes, solid L1.2H2O (478 mg, 0.88 mmol) and Mg(NO3)2 (113 mg, 0.44 mmol) were added to 10 mL of Simulant 1 solution (Table 1) containing 0.44 mmol SO4^2−. The mixture was stirred magnetically at room temperature for 48 h, and the resulting solid was filtered, washed with water, and dried. The identity of the crystalline product, MgSO4(L1)2(H2O)6 (Compound 3) was confirmed by PXRD and FTIR spectroscopy.
To recover and recycle L1, crystals of Compound 3 (457 mg, 0.368 mmol) were dissolved in 1 M HNO3 (1 mL) to form a clear solution to which was added 1 M NaOH (2 mL). The mixture was stirred at room temperature overnight, and the resulting solid was filtered, washed with water, and dried. Yield: 388 mg. […] The solid mixture of L1.2H2O and Mg(OH)2 could be recycled by adding it to a fresh solution of the simulant, thereby initiating another separation cycle.
The recovered solid L1 and magnesium hydroxide were then added to a fresh simulant solution to start another cycle. Such cycling was repeated twice more. […] This established that the ligand is robust enough to survive at least three recovery cycles. Although this magnesium-based system is not applicable to the full alkaline conditions encountered in the nuclear waste, the ease of operation coupled with high efficiency and good ligand recyclability opens the door to other industrial sulfate separations from simpler, less basic aqueous solutions.

[3] = Pairwise competitive crystallization with L1, K-based system
Text: as §1
For the K-based system, pairwise competitive crystallizations with L1 gave SO4^2/SeO4^2− selectivity and SO4^2−/CrO4^2− selectivity ratios of 13.3 and 1.1, respectively. The potassium capsule was the smallest of the three systems (d(N . . . N)=9.21 Å).

[4] = Relative solubility in water; assay type: physicochemical; conditions: pure water
Text: The final crystalline solid was isolated in 90% yield, and its PXRD and FTIR spectra corresponded to those of pure Compound 1 (FIG. 4). The relatively long reaction time required to convert L1 to Compound 1 appeared to proceed via a three-phase process involving slow dissolution of L1 and its recrystallization into Compound 1.

[5] = Mg-based system (Rajbanshi et al. 2012); cited from earlier work

## O=C(NCCN(CCNC(=O)Nc1cccnc1)CCNC(=O)Nc1cccnc1)Nc1cccnc1 [Compound L1]
[1]; L1 2 equiv, Na2SO4 and Na2CO3 1 equiv each, H2O/MeOH, elemental analysis
  molar ratio of sulphate over competing carbonate in crystals: 11.5
[1]; L1 2 equiv, Na2SO4 and Na2SO3 1 equiv each, H2O/MeOH, elemental analysis
  molar ratio of sulphate over competing sulphite in crystals: 5.9
[1]; Na2SO4/Na2CrO4 mixture
  SO4^2−/CrO4^2− ratio in crystals: 2.0
[2]; Simulant 1, first listed cycle
  recovery of sulfate: 99.6%
[2]; Simulant 1, second listed cycle
  recovery of sulfate: 99.4%
[2]; Simulant 1, third listed cycle
  recovery of sulfate: 97.9%
[3]
  SO4^2−/CrO4^2− selectivity ratio: 1.1
  SO4^2−/SeO4^2− selectivity ratio: 13.3
[4]
  solubility relative to Compound 1: less soluble than Compound 1
[5]
  SO4^2−/SeO4^2− ratio: 3
